Data on 18 compounds can be found in patent publication US7074789B2, “Kinase inhibitors” (Amgen Inc., priority 1999, dated 2006).

Type in all cases: biochemical
Test [1] has as its target T1, Lck (Homo sapiens, UniProt P06239).
T1 construct: Kinases are expressed as either kinase domains or full length constructs; made in house
As to the kind of experiment: Kinase inhibition assay (33P transfer), Lck. Conditions: Table 3; read-out: Lck-1. In a few lines: (§1)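 Filterless plate radiometric format: immobilized poly(Glu,Tyr) 4:1 or poly(Arg,Ser) 3:1, 33P-labelled ATP, tagged recombinant kinase (some with regulatory partners). Incorporated label counted after phosphoric acid wash.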

The target in test [2] is T2, Zap-70 (Homo sapiens, UniProt P43403).
T2 construct: Kinases are expressed as either kinase domains or full length constructs; made in house
T2 sequence (P43403 1-619): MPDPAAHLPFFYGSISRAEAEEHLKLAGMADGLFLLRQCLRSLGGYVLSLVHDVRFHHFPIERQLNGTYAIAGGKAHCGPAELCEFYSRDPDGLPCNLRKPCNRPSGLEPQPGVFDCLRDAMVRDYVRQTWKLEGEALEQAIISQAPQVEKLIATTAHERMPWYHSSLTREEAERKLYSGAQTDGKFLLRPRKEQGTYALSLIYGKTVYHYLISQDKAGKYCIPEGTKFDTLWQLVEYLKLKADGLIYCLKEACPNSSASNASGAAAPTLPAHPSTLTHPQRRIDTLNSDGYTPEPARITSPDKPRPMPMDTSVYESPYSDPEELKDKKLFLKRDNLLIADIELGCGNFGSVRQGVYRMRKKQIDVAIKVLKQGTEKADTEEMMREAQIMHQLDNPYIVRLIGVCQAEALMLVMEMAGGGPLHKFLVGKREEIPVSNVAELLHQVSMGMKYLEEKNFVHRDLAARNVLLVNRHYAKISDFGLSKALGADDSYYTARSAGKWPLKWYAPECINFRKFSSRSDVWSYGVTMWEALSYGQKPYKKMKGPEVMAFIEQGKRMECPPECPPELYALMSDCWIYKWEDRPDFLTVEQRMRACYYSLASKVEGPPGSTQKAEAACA
As to the kind of experiment: Kinase inhibition assay (33P transfer), Zap-70. Conditions: Table 3; read-out: Zap-1. In a few lines:
as §1

The target in test [3] is T3, Itk (Homo sapiens, UniProt Q08881).
T3 construct: Kinases are expressed as either kinase domains or full length constructs; made in house
T3 sequence (Q08881 1-620): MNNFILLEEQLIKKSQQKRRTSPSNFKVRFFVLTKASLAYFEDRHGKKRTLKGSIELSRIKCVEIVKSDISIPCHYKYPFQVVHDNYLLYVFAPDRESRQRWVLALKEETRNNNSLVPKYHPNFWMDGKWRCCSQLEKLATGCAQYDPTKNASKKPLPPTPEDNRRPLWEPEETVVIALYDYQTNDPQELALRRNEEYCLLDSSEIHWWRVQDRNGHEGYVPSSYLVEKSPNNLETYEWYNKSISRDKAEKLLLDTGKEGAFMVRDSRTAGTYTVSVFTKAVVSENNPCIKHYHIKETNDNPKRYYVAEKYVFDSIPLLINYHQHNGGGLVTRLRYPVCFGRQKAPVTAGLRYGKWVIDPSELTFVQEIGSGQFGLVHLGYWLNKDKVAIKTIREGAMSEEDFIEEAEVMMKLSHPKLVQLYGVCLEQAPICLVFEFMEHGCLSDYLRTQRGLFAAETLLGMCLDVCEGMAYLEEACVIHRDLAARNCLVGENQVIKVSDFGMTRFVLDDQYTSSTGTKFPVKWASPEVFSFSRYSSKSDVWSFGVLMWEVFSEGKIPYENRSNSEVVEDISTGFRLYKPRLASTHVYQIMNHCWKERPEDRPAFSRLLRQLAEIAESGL
As to the kind of experiment: Kinase inhibition assay (33P transfer), Itk. Conditions: Table 3; read-out: Itk-1. In a few lines:
(§2)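 GST/His-fusion kinases, E. coli or High Five expressed, affinity purified; 33P-ATP, plate-coated poly(Glu,Tyr) 4:1 or poly(Arg,Ser) 3:1; 0.5% H3PO4 wash, scintillant, LSC.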

For test [4], the target named is T4, EGFR (Homo sapiens, UniProt P00533).
T4 construct: Kinases are expressed as either kinase domains or full length constructs; made in house
T4 sequence (P00533 25-1210, species assumed): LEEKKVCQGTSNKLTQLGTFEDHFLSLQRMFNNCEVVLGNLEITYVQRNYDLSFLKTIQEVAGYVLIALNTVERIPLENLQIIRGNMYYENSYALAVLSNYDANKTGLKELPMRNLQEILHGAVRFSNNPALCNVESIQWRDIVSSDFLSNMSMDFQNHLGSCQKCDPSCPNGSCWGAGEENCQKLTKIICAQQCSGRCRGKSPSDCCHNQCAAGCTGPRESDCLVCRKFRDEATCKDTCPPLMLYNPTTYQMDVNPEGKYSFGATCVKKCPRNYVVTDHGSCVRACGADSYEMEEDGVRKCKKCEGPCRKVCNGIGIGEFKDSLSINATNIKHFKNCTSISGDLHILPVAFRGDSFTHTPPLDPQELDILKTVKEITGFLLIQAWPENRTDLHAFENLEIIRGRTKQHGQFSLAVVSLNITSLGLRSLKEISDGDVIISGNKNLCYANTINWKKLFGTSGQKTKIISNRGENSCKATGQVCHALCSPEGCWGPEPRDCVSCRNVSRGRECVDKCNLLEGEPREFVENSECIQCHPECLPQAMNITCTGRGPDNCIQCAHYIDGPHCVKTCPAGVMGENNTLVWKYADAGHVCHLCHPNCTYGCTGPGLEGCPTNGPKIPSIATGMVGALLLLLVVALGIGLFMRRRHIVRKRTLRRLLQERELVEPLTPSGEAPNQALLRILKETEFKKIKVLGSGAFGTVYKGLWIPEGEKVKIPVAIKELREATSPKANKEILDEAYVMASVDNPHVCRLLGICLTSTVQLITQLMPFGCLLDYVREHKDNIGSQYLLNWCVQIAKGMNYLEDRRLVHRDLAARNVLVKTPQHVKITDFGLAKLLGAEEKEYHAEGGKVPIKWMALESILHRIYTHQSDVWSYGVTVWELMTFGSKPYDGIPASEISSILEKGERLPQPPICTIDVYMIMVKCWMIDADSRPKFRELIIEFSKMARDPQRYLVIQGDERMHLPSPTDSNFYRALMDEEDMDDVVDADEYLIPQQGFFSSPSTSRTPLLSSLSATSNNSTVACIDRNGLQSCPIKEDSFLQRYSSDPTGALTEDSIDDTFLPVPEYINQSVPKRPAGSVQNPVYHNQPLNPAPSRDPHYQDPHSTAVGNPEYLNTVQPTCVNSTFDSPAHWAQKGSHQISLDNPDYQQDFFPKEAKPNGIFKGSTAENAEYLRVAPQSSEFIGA
As to the kind of experiment: Kinase inhibition assay (33P transfer), EGFR. Conditions: Table 2, kinase inhibition class; read-out: EGFR-1. The procedure, abridged:
as §2

Test [5] deals with T5, Kdr (Homo sapiens, UniProt P35968).
T5 construct: Kinases are expressed as either kinase domains or full length constructs; made in house
As to the kind of experiment: Kinase inhibition assay (33P transfer), Kdr. The note with it: Table 3; read-out: KDR-1. In a few lines:
as §1

Test [6] deals with T6, c-Met (Homo sapiens, UniProt P08581).
T6 construct: Kinases are expressed as either kinase domains or full length constructs; made in house
T6 sequence (P08581 25-1390): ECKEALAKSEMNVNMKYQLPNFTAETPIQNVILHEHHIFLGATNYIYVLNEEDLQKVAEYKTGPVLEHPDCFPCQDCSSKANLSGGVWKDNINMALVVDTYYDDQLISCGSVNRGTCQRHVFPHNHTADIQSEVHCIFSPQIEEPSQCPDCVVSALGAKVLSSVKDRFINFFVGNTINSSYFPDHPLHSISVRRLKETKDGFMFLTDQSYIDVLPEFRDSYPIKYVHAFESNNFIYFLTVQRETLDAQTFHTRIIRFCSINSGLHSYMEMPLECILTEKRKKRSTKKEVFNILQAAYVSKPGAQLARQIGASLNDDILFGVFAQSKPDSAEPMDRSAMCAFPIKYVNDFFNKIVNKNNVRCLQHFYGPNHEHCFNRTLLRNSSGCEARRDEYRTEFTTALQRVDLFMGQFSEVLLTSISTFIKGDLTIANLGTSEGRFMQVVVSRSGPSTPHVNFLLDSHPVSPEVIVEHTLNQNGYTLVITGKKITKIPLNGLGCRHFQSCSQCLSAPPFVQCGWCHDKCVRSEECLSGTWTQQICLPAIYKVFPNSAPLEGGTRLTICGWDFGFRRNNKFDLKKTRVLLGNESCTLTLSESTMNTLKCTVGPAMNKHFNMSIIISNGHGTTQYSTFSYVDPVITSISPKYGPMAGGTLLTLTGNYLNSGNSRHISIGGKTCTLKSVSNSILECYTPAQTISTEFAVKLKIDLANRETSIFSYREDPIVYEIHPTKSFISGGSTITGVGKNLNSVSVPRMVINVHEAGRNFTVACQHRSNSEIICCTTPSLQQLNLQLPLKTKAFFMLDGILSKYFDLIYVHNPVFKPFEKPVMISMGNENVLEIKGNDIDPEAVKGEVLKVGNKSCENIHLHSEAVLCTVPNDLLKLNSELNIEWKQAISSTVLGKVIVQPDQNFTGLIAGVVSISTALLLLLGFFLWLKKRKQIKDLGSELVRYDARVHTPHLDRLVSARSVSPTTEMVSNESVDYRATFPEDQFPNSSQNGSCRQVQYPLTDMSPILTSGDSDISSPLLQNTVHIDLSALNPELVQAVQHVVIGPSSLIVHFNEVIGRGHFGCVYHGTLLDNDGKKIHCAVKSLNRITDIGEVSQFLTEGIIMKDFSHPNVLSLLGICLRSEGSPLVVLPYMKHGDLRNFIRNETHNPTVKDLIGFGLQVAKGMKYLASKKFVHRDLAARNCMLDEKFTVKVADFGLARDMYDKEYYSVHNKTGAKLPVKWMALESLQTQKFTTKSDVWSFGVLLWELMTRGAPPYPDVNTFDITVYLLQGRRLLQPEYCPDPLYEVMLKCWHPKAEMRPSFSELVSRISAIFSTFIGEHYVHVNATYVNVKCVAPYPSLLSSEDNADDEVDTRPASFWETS
As to the kind of experiment: Kinase inhibition assay (33P transfer), c-Met. The note with it: Table 2, kinase inhibition class; read-out: Met-1. The procedure, abridged:
as §2

In test [7] the target is T7, AKT (Homo sapiens, UniProt Q9Y243).
T7 construct: Kinases are expressed as either kinase domains or full length constructs; made in house
T7 sequence (Q9Y243 whole entry, the tested form may be a part): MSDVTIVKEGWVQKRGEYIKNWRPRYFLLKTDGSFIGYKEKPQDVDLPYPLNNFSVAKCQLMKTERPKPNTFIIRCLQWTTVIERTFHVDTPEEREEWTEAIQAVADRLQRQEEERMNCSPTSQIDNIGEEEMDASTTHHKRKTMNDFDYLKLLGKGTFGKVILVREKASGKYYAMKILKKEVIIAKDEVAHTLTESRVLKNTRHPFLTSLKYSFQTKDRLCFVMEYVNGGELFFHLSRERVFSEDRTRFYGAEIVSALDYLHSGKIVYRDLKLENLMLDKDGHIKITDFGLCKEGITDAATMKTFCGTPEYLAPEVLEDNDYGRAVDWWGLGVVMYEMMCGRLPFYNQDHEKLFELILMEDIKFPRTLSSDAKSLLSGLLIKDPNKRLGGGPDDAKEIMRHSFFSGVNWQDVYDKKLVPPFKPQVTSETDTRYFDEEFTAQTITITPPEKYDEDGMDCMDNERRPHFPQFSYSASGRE
As to the kind of experiment: Kinase inhibition assay (33P transfer), AKT. The note with it: Table 2, kinase inhibition class; read-out: AKT3-1. The procedure, abridged: as §1

For test [8], the target named is T8, IGFR-1 (Homo sapiens, UniProt P08069).
T8 construct: Kinases are expressed as either kinase domains or full length constructs; made in house
T8 sequence (P08069 31-1367): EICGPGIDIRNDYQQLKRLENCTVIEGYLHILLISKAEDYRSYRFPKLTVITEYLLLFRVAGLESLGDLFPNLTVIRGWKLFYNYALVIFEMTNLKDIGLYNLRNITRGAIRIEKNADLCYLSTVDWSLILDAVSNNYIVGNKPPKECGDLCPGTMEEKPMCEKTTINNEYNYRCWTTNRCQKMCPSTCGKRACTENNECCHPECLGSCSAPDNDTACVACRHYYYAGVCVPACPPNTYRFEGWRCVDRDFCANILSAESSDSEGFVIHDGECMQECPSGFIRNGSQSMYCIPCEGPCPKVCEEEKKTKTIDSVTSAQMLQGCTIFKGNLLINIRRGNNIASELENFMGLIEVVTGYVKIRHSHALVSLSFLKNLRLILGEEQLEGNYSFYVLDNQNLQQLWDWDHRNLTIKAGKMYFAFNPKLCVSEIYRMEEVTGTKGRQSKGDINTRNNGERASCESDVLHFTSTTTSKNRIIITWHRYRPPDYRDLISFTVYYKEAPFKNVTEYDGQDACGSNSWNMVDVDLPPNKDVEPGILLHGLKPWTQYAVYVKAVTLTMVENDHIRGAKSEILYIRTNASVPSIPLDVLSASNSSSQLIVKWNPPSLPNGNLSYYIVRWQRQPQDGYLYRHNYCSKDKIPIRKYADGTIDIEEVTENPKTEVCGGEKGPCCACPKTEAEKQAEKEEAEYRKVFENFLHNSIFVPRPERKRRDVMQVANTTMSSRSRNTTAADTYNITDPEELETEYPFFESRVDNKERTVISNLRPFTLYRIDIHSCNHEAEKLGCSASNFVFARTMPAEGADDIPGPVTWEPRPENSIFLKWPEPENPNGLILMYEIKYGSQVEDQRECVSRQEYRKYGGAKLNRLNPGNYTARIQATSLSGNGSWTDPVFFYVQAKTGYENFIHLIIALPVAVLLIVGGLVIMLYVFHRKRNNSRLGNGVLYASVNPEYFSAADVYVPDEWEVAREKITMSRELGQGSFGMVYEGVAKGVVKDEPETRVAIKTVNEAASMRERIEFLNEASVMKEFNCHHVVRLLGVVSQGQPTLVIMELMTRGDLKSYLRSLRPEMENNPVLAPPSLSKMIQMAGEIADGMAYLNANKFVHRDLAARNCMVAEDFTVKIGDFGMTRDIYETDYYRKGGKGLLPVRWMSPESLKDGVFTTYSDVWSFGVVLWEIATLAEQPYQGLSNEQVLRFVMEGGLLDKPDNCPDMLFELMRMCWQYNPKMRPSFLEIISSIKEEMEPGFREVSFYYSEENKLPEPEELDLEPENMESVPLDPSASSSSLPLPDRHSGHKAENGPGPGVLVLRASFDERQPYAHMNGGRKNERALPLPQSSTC
As to the kind of experiment: Kinase inhibition assay (33P transfer), IGFR-1. The note with it: Table 2, kinase inhibition class.

Molecules are shown by their SMILES. “And” between values parts separate entries of the source, which are not always exact repeats. Equal entries are not always repeated.

T1 sequence (P06239 whole entry, species assumed, the tested form may be a part): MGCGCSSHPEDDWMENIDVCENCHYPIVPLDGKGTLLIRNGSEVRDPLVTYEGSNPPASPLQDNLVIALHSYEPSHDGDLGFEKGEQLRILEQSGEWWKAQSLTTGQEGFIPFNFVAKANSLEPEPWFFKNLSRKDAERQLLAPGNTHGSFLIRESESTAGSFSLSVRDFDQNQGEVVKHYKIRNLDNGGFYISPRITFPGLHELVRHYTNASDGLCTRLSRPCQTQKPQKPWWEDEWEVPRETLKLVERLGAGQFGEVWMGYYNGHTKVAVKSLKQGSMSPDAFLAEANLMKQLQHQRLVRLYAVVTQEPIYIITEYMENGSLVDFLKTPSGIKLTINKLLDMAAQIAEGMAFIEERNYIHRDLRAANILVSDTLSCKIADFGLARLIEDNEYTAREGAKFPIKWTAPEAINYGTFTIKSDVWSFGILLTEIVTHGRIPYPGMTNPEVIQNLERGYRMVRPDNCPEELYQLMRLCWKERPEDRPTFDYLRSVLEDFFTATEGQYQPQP

For the compound `COc1cc(Nc2ncnc(-c3ccnc(N4CCCCC4)c3)n2)cc(OC)c1OC` [Compound 345], the IC50 in test [1] is 0.947 to 5.68 µM; in test [2] it was > 10.7 µM; in test [3], > 10.7 µM; in test [4] it was > 10.7 µM; in test [5], < 0.947 µM; in test [6], 0.947 to 5.68 µM. In addition, the IC50 in test [7] was > 10.7 µM; in test [8] it was 0.947 to 5.68 µM.

For `FC(F)C(F)(F)Oc1cccc(Nc2ncnc(-c3ccnc(N4CCCCC4)c3)n2)c1` [Compound 346], the IC50 in test [1] is > 10 µM; in test [2] it was > 10 µM; in test [3], > 10 µM; in test [4], > 10 µM; in test [5], 0.892 to 5.35 µM; in test [6] it was > 10 µM. For the same compound, the IC50 in test [7] and in test [8] was > 10 µM throughout.

Regarding `c1csc(-c2ncnc(Nc3ccc(N4CCOCC4)cc3)n2)c1` [Compound 349], the IC50 in test [1] is 1.18 to 7.07 µM; in test [2] it was > 13.3 µM; in test [3] it was > 13.3 µM; in test [4] it was > 13.3 µM; in test [5], 10.3 to 13.3 µM; in test [6] it was 10.3 to 13.3 µM. Besides, the values for the IC50 in test [7] and in test [8] were 10.3 to 13.3 µM and > 13.3 µM, respectively.

Regarding `FC(F)C(F)(F)Oc1cccc(Nc2ncnc(-c3cccs3)n2)c1` [Compound 350], the IC50 in test [1], in test [2], in test [3], in test [4], in test [5] and in test [6] was > 12.2 µM each time. Besides, the IC50 in test [7] and in test [8] was > 12.2 µM throughout.

Consider `O=[N+]([O-])c1cccc(Nc2ncnc(-c3cccs3)n2)c1` [Compound 352], for which the IC50 in test [1], in test [2], in test [3], in test [4], in test [5] and in test [6] was > 15 µM throughout. For the same compound, the IC50 in test [7] and in test [8] was > 15 µM each time.

As for `NC(=O)c1ccc(Nc2ncnc(-c3cccs3)n2)cc1` [Compound 354], the IC50 in test [1], in test [2], in test [3], in test [4], in test [5] and in test [6] was > 15.1 µM throughout. Also, the IC50 in test [7] and in test [8] was > 15.1 µM in each case.

For `CC(=O)Nc1ccc(Nc2ncnc(-c3cccs3)n2)cc1` [Compound 355], the IC50 in test [1], in test [2], in test [3], in test [4], in test [5] and in test [6] was > 14.5 µM each time. Further, the IC50 in test [7] and in test [8] was > 14.5 µM each time.

As for `N#Cc1ccc(Nc2ncnc(-c3cccs3)n2)cc1` [Compound 356], the IC50 in test [1], in test [2], in test [3], in test [4], in test [5] and in test [6] was > 16.1 µM each time. The IC50 in test [7] and in test [8] was > 16.1 µM each time.

Turning to `COc1ccc(Nc2ncnc(-c3cccs3)n2)cc1OC` [Compound 357], the IC50 in test [1], in test [2], in test [3], in test [4], in test [5] and in test [6] was > 14.3 µM each time. Further, the IC50 in test [7] and in test [8] was > 14.3 µM each time.

In the case of `NC(=O)c1cccc(Nc2ncnc(-c3cccs3)n2)c1` [Compound 358], the IC50 in test [1], in test [2], in test [3], in test [4], in test [5] and in test [6] was > 15.1 µM throughout. The IC50 in test [7] and in test [8] was > 15.1 µM throughout.

`COc1cc(C)c(Nc2ncnc(-c3cccs3)n2)cc1OC` [Compound 359]: the IC50 in test [1], in test [2], in test [3], in test [4], in test [5] and in test [6] was > 13.7 µM each time. The IC50 in test [7] and in test [8] was > 13.7 µM throughout.

Consider `Clc1cccc(Nc2ncnc(-c3cccs3)n2)c1` [Compound 360], for which the IC50 in test [1], in test [2], in test [3], in test [4], in test [5] and in test [6] was > 15.6 µM each time. The IC50 in test [7] and in test [8] was > 15.6 µM in each case.

For the compound `c1ccc(COc2cccc(Nc3ncnc(-c4cccs4)n3)c2)cc1` [Compound 361], the IC50 in test [1], in test [2], in test [3], in test [4], in test [5] and in test [6] was > 12.5 µM each time. Further, the IC50 in test [7] and in test [8] was > 12.5 µM in each case.

Take `COc1cccc(Nc2ncnc(-c3cccs3)n2)n1` [Compound 362]: the IC50 in test [1], in test [2], in test [3], in test [4], in test [5] and in test [6] was > 15.8 µM throughout. Moreover, the IC50 in test [7] and in test [8] was > 15.8 µM each time.

For the compound `c1csc(-c2ncnc(Nc3ccncc3)n2)c1` [Compound 363], the IC50 in test [1], in test [2], in test [3], in test [4], in test [5] and in test [6] was > 17.6 µM throughout. The IC50 in test [7] and in test [8] was > 17.6 µM each time.

Regarding `COc1cc(Nc2ncnc(-n3c(NCCO)nc4ccccc43)n2)cc(OC)c1OC` [Compound 391], the IC50 in test [1] was 8 to 10.3 µM; in test [2] it was > 10.3 µM; in test [3] it was > 10.3 µM; in test [4] it was > 10.3 µM; in test [5], 0.914 to 5.49 µM; in test [6], > 10.3 µM. Besides, the IC50 in test [7] and in test [8] was > 10.3 µM each time.

Regarding `COc1cc(Nc2ncnc(-n3c(NCCCCO)nc4ccccc43)n2)cc(OC)c1OC` [Compound 392], the IC50 in test [1] is 5.16 to 7.52 µM; in test [2], > 9.67 µM; in test [3], > 9.67 µM; in test [4], > 9.67 µM; in test [5], 0.859 to 5.16 µM; in test [6], > 9.67 µM. Besides, the IC50 in test [7] and in test [8] was > 9.67 µM in each case.

On to `COc1cc(Nc2ncnc(Nc3cc(C)nn3C)n2)cc(OC)c1OC` [Compound 393], for which the IC50 in test [1] is 1.08 to 6.46 µM and > 12.1 µM; in test [2], > 12.1 µM; in test [3] it was > 12.1 µM; in test [4], 9.42 to 12.1 µM and > 12.1 µM; in test [5], > 12.1 µM and 6.46 to 9.42 µM; in test [6] it was > 12.1 µM. In addition, the IC50 in test [7] and in test [8] was > 12.1 µM each time.
